Values quoted from earlier work in patent US20120295796A1, “System and Method of Predicting Chemical Interaction and Functionality of Molecules” (VASSA INFORMATICS, priority 2010, published 2012).

Legend:
HMG-CoA reductase = molecular target: T1, HMG-CoA reductase (Homo sapiens, UniProt P04035); conditions: hit of Lipitor search, not structurally similar to Lipitor
T1 sequence (P04035 426-888 limits assumed): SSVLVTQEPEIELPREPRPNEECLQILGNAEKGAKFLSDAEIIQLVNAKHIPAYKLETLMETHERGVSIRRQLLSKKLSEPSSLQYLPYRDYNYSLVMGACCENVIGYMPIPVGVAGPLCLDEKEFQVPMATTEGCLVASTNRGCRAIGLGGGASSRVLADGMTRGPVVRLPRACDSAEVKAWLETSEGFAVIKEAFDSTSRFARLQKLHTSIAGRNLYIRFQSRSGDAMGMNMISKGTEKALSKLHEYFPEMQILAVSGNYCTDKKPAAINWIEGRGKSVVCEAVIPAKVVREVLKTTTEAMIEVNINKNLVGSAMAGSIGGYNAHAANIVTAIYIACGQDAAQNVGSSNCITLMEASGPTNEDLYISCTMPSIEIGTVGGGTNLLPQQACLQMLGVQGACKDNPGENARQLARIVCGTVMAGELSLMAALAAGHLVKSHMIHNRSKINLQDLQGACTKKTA

EGFR = EGFR (Homo sapiens, UniProt P00533); conditions: search utilizing the entire binding site
Chain of EGFR (P00533 25-1210): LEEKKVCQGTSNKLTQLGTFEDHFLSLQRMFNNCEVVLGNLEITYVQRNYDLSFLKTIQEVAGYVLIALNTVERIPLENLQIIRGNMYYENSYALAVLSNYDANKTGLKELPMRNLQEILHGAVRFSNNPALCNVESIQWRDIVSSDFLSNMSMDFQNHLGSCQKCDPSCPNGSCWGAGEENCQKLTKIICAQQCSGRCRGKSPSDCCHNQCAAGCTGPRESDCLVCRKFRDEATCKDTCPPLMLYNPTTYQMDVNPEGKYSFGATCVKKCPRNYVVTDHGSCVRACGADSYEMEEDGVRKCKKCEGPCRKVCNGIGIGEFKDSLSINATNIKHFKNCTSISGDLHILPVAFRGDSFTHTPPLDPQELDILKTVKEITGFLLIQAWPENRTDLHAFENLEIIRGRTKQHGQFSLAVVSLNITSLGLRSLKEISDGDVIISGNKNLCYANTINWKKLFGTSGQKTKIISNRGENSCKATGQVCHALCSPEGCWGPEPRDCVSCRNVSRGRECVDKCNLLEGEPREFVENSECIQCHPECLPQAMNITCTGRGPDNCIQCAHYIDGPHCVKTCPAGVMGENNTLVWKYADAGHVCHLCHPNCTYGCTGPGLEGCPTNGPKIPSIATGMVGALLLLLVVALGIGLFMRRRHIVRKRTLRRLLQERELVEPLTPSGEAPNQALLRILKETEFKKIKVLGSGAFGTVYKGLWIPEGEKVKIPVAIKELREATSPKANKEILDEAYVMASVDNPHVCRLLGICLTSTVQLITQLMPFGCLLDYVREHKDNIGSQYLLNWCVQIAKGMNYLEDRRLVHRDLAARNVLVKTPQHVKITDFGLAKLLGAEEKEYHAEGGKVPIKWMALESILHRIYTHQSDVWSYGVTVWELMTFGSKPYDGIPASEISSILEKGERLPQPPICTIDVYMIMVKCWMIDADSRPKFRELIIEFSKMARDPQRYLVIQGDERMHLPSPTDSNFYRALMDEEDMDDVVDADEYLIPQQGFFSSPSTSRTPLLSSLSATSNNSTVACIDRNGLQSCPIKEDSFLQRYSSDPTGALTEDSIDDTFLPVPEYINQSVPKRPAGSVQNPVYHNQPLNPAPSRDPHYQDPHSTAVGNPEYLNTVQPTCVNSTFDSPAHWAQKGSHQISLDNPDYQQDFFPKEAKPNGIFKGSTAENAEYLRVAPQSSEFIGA

SMILES	known binding to HMG-CoA reductase (search result category Known Binders) (HMG-CoA reductase)	binder status at the Tarceva binding site (ADP binding site) (EGFR)
CC(C)(COP(=O)(O)OP(=O)(O)OC[C@H]1O[C@@H](n2cnc3c(N)ncnc32)[C@H](O)[C@@H]1OP(=O)(O)O)[C@@H](O)C(=O)NCCC(=O)NCCS [Coenzyme A]	binds HinG-CoA reductase	–
Nc1ncnc2c1ncn2[C@@H]1O[C@H](COP(=O)(O)OP(=O)(O)OP(=O)(O)O)[C@@H](O)[C@H]1O [ATP]	–	already known or suspected as binders
Nc1ncnc2c1ncn2[C@@H]1O[C@H](COP(=O)(O)O)[C@@H](O)[C@H]1O [AMP]	–	already known or suspected as binders
Nc1ncnc2c1ncn2[C@@H]1O[C@H](COP(=O)(O)OP(=O)(O)O)[C@@H](O)[C@H]1O [ADP]	–	already known or suspected as binders
